Measured values from patent publication US6500959B1, “Pyrrolidine derivatives and processes for preparing same” (GPI NIL Holdings, Inc., priority 1995, dated 2002).
pEC50, pKi: −log10 of the molar value. Read-outs that look alike come from different tables or passages of the source.

How the values were obtained:
FKBP = FKBP (Homo sapiens, UniProt P62942); test: Ki test procedure: inhibition of peptidyl-prolyl isomerase (rotamase) activity, chymotrypsin-coupled assay; type: biochemical; conditions: apparent Ki
Chain of FKBP (P62942 whole entry): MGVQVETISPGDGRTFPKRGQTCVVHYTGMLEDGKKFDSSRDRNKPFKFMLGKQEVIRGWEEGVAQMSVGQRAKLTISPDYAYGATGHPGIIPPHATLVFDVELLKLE
Procedure: The inhibition of this reaction caused by the addition of different concentrations of inhibitor is determined, and the data is analyzed as a change in first-order rate constant as a function of inhibitor concentration to yield the apparent Ki values.
In a plastic cuvette are added […] of ice cold assay buffer (25 mM HEPES, pH 7.8, 100 mM NaCl), […] of FKBP (2.5 mM in 10 mM Tris-Cl pH 7.5, 100 mM NaCl, 1 mM dithiothreitol), […] of chymotrypsin (50 mg/ml in 1 mM HCl) and […] of test compound at various concentrations in dimethyl sulfoxide.

[1] = system: chick dorsal root ganglia; test: Chick dorsal root ganglion cultures and neurite outgrowth; type: cell-based; conditions: read-out: ED50, neurite outgrowth
Text: (§1) Forty-eight hours later, the number of neurite with a length greater than one DRG explant was quantitated. The number of neurites expressed in untreated DRG's was subtracted from the neurite number of Example 17—treated samples to yield Example 17—dependent specific neurite outgrowth.
as §1, with “form” for “from”, “outgrowth. Quantitative dose-dependent neurite outgrowth elicited by Example 17 is presented.” for “outgrowth.”
Dorsal root ganglia were dissected from chick embryos of ten day gestation. Whole ganglion explants were cultured on thin layer Matrigel-coated 12 well plates with Liebovitz L15 plus high glucose media supplemented with 2 mM glutamine and 10% fetal calf serum, and also containing 10 μM cytosine β-D arabinofuranoside (Ara C) at 37° C. in an environment containing 5% CO2. Twenty-four hours later, the DRGs were treated with various concentrations of nerve growth factor, immunophilin ligands or combinations of NFG plus drugs. Forty-eight hours after drug treatment, the ganglia were visualized under phase contrast or Hoffman Modulation contrast with a Zeiss Axiovert inverted microscope. Photomicrographs of the explants were made, and neurite outgrowth was quantitated. Neurites longer than the DRG diameter were counted as positive, with total number of neurites quantitated per each experimental condition. Three to four DRGs are cultured per well, and each treatment was performed in duplicate.

[2] = chick DRG explants, 48 h after drug treatment

| Structure (SMILES) | pKi (FKBP) | pEC50 [1, 2] | pEC50 ([1]; Gallus gallus, 48 h) |
| --- | --- | --- | --- |
| O=C(C(=O)N1CCC[C@H]1C(=O)OC(CCc1ccccc1)c1ccccc1)C1CCCCC1 (stereo partly drawn) [Example 20, 3-phenyl-1-phenyl-1-propyl (2S)-1-(2-cyclohexyl-1,2-dioxoethyl)-2-pyrrolidinecarboxylate] | 7.09 | 9.89 |  |
| CCC(C)(C)C(=O)C(=O)N1CCC[C@H]1C(=O)OCCC(c1ccccc1)c1ccccc1 [Example 25, 3,3-diphenyl-1-propyl (2S)-1-(3,3-dimethyl-1,2-dioxopentyl)-2-pyrrolidinecarboxylate] |  |  | 9.30 |
| CC(C)(C)C(=O)C(=O)N1CCC[C@H]1C(=O)OCCC(c1ccccc1)c1ccccc1 [Example 28, 3,3-Diphenyl-1-propyl (2S)-1-(3,3-dimethyl-1,2-dioxobutyl)-2-pyrrolidinecarboxylate] |  |  | 9.30 |
| CC(C)(C)C(=O)C(=O)N1CCC[C@H]1C(=O)OCCCc1cccnc1 [Example 24, 3-(3-pyridyl)-1-propyl (2S)-1-(2-tert-butyl-1,2-dioxoethyl)-2-pyrrolidinecarboxylate] |  |  | 10.85 |
| O=C(C(=O)N1CCC[C@H]1C(=O)OCCCc1cccnc1)C1CCCCC1 [Example 26, 3-(3-pyridyl)-1-propyl (2S)-1-(2-cyclohexyl-1,2-dioxoethyl)-2-pyrrolidinecarboxylate] |  |  | 8.70 |
| CCC(C)(C)C(=O)C(=O)N1CCC[C@H]1C(=O)OCCCc1cc(OC)ccc1OC [Example 14, 3-(2,5-dimethoxyphenyl)-1-propyl (2S)-1-(3,3-dimethyl-1,2-dioxopentyl)-2-pyrrolidine-carboxylate] |  |  | 8.70 |
| O=C(CCC1CCCCC1)C(=O)N1CCC[C@H]1C(=O)OCCCc1cccnc1 [Example 23, 3-(3-pyridyl)-1-propyl (2S)-1-(2-cyclohexylethyl-1,2-dioxoethyl)-2-pyrrolidinecarboxylate] |  |  | 5.96 |
| CC(C)(C)C(=O)C(=O)N1CCC[C@H]1C(=O)OCCCc1ccccc1 [Example 21, 3-phenyl-1-propyl (2S)-1-(2-tert-butyl-1,2-dioxoethyl)-2-pyrrolidinecarboxylate] |  |  | 10.60 |
| CCC(C)(C)C(=O)C(=O)N1CCC[C@H]1C(=O)OCCCc1cc(OC)c(OC)c(OC)c1 [Example 3, 3-(3,4,5-trimethoxyphenyl)-1-propyl (2S)-1-(3,3-dimethyl-1,2-dioxopentyl)-2-pyrrolidine-carboxylate] |  |  | 6.83 |
| O=C(C(=O)N1CCC[C@H]1C(=O)OCCC(c1ccccc1)c1ccccc1)C1CCCCC1 [Example 29, 3,3-Diphenyl-1-propyl (2S)-1-cyclohexyl glyoxyl-2-pyrrolidinecarboxylate] | 7.70 |  | 8.00 |
| CCC(C)(C)C(=O)C(=O)N1CCC[C@H]1C(=O)OCCc1cc(OC)c(OC)c(OC)c1 [Example 16, 2-(3,4,5-trimethoxyphenyl)-1-ethyl (2S)-1-(3,3-dimethyl-1,2-dioxopentyl)-2-pyrrolidine-carboxylate] |  |  | 10.82 |
| CCC(C)(C)C(=O)C(=O)N1CCC[C@H]1C(=O)OCCCc1ccccn1 [Example 18, 3-(2-Pyridyl)-1-propyl (2S)-1-(3,3-dimethyl-1,2-dioxopentyl)-2-pyrrolidinecarboxylate] |  |  | 7.52 |
| O=C(CCC1CCCCC1)C(=O)N1CCC[C@H]1C(=O)OCCCc1ccccc1 [Example 22, 3-phenyl-1-propyl (2S)-1-(2-cyclohexyl-ethyl-1,2-dioxoethyl)-2-pyrrolidinecarboxylate] |  |  | 9.18 |
| CCC(C)(C)C(=O)C(=O)N1CCC[C@H]1C(=O)OCCCc1ccncc1 [Example 19, 3-(4-Pyridyl)-1-propyl (2S)-1-(3,3-dimethyl-1,2-dioxopentyl)-2-pyrrolidinecarboxylate] |  |  | 8.22 |

More lines, main results first:

| pKi (FKBP) | Structure (SMILES) | pEC50 [1, 2] | pEC50 ([1]; Gallus gallus, 48 h) |
| --- | --- | --- | --- |
| 6.77 | CCC(C)(C)C(=O)C(=O)N1CCC[C@H]1C(=O)OCCCc1ccc2c(c1)OCO2 [Example 5] | 8.00 |  |
| 6.00 | O=C(C(=O)N1CCC[C@H]1C(=O)OCCCc1cccnc1)c1cccs1 [Example 27, 3-(3-Pyridyl)-1-propyl (2S)-N-([2-thienyl]glyoxyl)pyrrolidinecarboxylate] |  | 6.30 |
| 5.71 | O=C(C(=O)N1CCC[C@H]1C(=O)OCCCc1ccccc1)c1ccccc1 [Example 13, 3-phenyl-1-propyl (2S)-1-(1,2-dioxo-2-phenyl)ethyl-2-pyrrolidinecarboxylate] |  |  |
| 5.40 | O=C(C(=O)N1CCC[C@H]1C(=O)OCCCc1ccccc1)c1ccco1 [Example 10, 3-phenyl-1-propyl (2S)-1-(1,2-dioxo-2-[2-furanyl])ethyl-2-pyrrolidinecarboxylate] |  | 9.34 |
| 6.80 | CCC(C)(C)C(=O)C(=O)N1CCC[C@H]1C(=O)OC/C=C/c1ccc2c(c1)OCO2 [Example 6, 3-(4,5-methylenedioxyphenyl)-1-prop-2-(E)-enyl (2S)-1-(3,3-dimethyl-1,2-dioxopentyl)-2-pyrrolidinecarboxylate] |  | 7.12 |
| 6.22 | CCC(C)(C)C(=O)C(=O)N1CCC[C@H]1C(=O)OC/C=C/C1CCCCC1 [Example 8, 3-cyclohexyl-1-prop-2-(E)-enyl (2S)-1-(3,3-dimethyl-1,2-dioxopentyl)-2-pyrrolidinecarboxylate] |  |  |
| 6.82 | O=C(C(=O)N1CCC[C@H]1C(=O)OCCC(c1ccccc1)c1ccccc1)c1cccs1 [Example 30, 3,3-Diphenyl-1-propyl (2S)-1-(2-thienyl) glyoxyl-2-pyrrolidinecarboxylate] |  | 7.00 |
| 6.35 | CCC(C)(C)C(=O)C(=O)N1CCC[C@H]1C(=O)OC/C=C/c1cc(OC)ccc1OC [Example 15, 3-(2,5-dimethoxyphenyl)-1-prop-2-(E)-enyl (2S)-1-(3,3-dimethyl-1,2-dioxopentyl)-2-pyrrolidine-carboxylate] |  | 9.10 |
| 7.19 | CCC(C)(C)C(=O)C(=O)N1CCC[C@H]1C(=O)OC/C=C/c1cc(OC)c(OC)c(OC)c1 [Example 4, 3-(3,4,5-trimethoxyphenyl)-1-prop-2-(E)-enyl (2S)-1-(3,3-dimethyl-1,2-dioxopentyl)-2-pyrrolidine carboxylate] |  | 6.72 |
| 6.90 | CCC(C)(C)C(=O)C(=O)N1CCC[C@H]1C(=O)OC/C=C/c1ccccc1 [Example 2, 3-phenyl-1-prop-2-(E)-enyl (2S)-1-(3,3-dimethyl-1,2-dioxopentyl)-2-pyrrolidinecarboxylate] |  | 6.98 |
| 7.00 | O=C(C(=O)N1CCC[C@H]1C(=O)OCCCc1ccccc1)c1nccs1 [Example 12, 3-phenyl-1-propyl (2S)-1-(1,2-dioxo-2-[2-thiazolyl])ethyl-2-pyrrolidinecarboxylate] |  |  |
| 7.04 | O=C(C(=O)N1CCC[C@H]1C(=O)OCCCc1ccccc1)c1cccs1 [Example 11, 3-phenyl-1-propyl (2S)-1-(1,2-dioxo-2-[2-thienyl])ethyl-2-pyrrolidinecarboxylate] |  | 10.82 |
